Assays:
[1] = target: T1, human recombinant IKK-β (Homo sapiens, UniProt O14920); assay: ELISA-based; format: biochemical
T1 sequence (O14920 1-756): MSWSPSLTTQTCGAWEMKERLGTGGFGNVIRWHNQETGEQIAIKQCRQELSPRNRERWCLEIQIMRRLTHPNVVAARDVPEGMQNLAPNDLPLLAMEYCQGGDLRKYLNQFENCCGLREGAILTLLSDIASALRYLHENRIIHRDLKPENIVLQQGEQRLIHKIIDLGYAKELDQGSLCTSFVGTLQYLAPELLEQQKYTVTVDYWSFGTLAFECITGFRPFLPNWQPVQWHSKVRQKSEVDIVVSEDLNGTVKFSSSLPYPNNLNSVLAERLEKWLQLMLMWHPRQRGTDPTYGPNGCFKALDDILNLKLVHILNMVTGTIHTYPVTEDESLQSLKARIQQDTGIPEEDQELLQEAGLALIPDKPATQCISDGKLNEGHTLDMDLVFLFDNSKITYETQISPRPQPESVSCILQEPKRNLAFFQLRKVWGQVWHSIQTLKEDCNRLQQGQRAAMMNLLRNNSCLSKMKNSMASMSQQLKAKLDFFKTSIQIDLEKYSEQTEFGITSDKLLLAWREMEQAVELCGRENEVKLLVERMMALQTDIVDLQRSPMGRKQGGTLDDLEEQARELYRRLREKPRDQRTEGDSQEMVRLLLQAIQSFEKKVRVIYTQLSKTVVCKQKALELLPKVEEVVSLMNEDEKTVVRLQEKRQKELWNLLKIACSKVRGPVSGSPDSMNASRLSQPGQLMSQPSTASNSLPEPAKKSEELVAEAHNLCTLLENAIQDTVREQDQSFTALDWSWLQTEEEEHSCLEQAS

[2] = system: NF-κB activation induced by TNF-α in HEK293 cells (293/NFκB-luc); format: cell-based; conditions: HEK293 NF-κB luciferase reporter cells, 2 ng/ml TNF-α for 6 h

Row | IC50 [1] | SMILES | Effect on TNF-α-induced luciferase activity (in words) [2]
1 | 6.95 ± 0.55 µM | O=C(OCCC12CC3CC(CC(C3)C1)C2)c1ccc(NCc2cc(O)ccc2O)cc1 [Compound 8, 2-(1-adamantyl)ethyl 4-[(2,5-dihydroxyphenyl)methylamino]benzoate] | inhibited TNF-α-induced luciferase activity dose-dependently
2 |  | NC(=O)Nc1sc(-c2ccc(F)cc2)cc1C(N)=O [IKK-β inhibitor IV, reference compound] | inhibited TNF-α-induced luciferase activity dose-dependently

From PMC3013379 (Bioorganic & Medicinal Chemistry Letters, 2011)
